Experimental data as given in paper PMC8042727, “Apoptosis-like cell death upon kinetoplastid induction by compounds isolated from the brown algae Dictyota spiralis” (Parasites & Vectors, 2021).

Key:
Type in all cases: cell-based
[1] = system: Trypanosoma cruzi epimastigotes (Y strain); test: In vitro evaluation on T. cruzi epimastigotes (AlamarBlue, 72 h); details: for IC50: 72 h, read-out: IC50: epimastigote; for IC90: nonlinear regression of AlamarBlue curve, read-out: IC90 Trypanosoma cruzi: epimastigote
Protocol: Experiments including in vitro activity assays of isolated compounds 1–3 were performed against the promastigote and amastigote stages of Leishmania amazonensis (MHOM/BR/77/LTB0016) and the epimastigote stage of Trypanosoma cruzi (Y strain). Promastigotes of L. amazonensis were cultured in Schneider’s medium (Sigma-Aldrich, St. Louis, MO, USA). Typanosoma cruzi strain Y was cultured in liver Infusion tryptose (LIT) medium. The three molecules 1-3 were tested against epimastigotes of T. cruzi. Briefly, the molecules were dissolved in DMSO in 96-well plates and a serially diluted concentration was made in 100 μl of LIT medium supplemented with 10% heat-inactivated FBS. In all tests, a maximum of 1% DMSO was used to dissolve the highest dose of the compounds without inducing any effects on the parasites; epimastigotes in the logarithmic growth phase were then counted, adjusted to 5 × 10^5 cells/ml, distributed on the previous 96-well plate and incubated at 27 °C for 72 h. The plate was observed under an inverted microscope after 72 h of incubation and analyzed statistically as described for the leishmanicidal test. Hoechst dye is a blue-fluorescent dye that stains condensed chromatin of apoptotic cells. To detect DNA condensation, the chromatin condensation/dead cell apoptosis kit was used (Invitrogen, Thermo Fisher Scientific, Waltham, MA, USA). Cells were incubated in the presence of the compounds to be tested at IC90. The IC90 values were determined using nonlinear regression of the AlamarBlue® curve. After 24 h of incubation, cells were harvested and resuspended in medium, following which 1 μl of Hoechst 33342 stock solution was added to parasites and incubated for 20 min. Results were analyzed by cell imaging using the Evos FL cell imaging system (Thermo Fisher Scientific). The experiments were repeated using a double-stain apoptosis detection kit (Hoechst 33342/PI; Thermo Fisher Scientific). […] A positive control was also tested: miltefosine (L. amazonensis) and benznidazole (T. cruzi).

[2] = system: Leishmania amazonensis promastigotes; test: Plasma membrane permeability assay (SYTOX Green); details: L. amazonensis, IC90, up to 6 h, compared to Triton X-100 (100%)
Protocol: This assay was performed to evaluate the cell’s membrane permeability. Following the manufacturer’s recommendations, promastigotes of L. amazonensis and epimastigotes of T. cruzi were incubated in phosphate saline buffer in the presence of 1 μM of SYTOX® Green nucleic acid stain (Life Technologies, Waltham, MA, USA) and the IC90 of the different test compounds to be tested. Variation in fluorescence was measured every 15 min for 6 h using the Enspire multimode plate reader at excitation/emission wavelengths of 485/520. The percentage of relative permeabilization was calculated in reference to complete permeabilization realized by adding Triton X-100 (Sigma-Aldrich). In addition, both L. amazonensis and T. cruzi cells were incubated for 24 h with compounds 1–3, miltefosine and benznidazole, and images were captured using the Evos cell imaging system.
One of the detectable cellular events of a necrotic cell death is the rupture of the plasma membrane. This event can be detected by evaluating plasma membrane permeabilization. We performed the SYTOX Green dye assay to detect effect of compounds 1–3 on membrane permeability. This green-fluorescence dye has a high affinity for DNA. Triton X-100 was used as a positive control in light of its known effect to cause 100% membrane permeabilization. Values of fluorescence were measured each 15 min for 6 h.

[3] = system: Leishmania amazonensis promastigotes; test: Mitochondrial membrane potential (JC-1); details: L. amazonensis, IC90, 24 h, relative to negative control
Protocol: Promastigotes of L. amazonensis (2 × 10^6 cells/ml) and epimastigotes (5 × 10^5cells/ml) of T. cruzi were incubated for 24 h in the presence of the compounds to be tested, at IC90 and 26 °C, following which the cells were centrifuged, resuspended and transferred to black bottom 96-well plate. A 10-μl aliquot of JC-1 reagent (JC-1 Mitochondrial Membrane Potential Assay Kit; Cayman Chemical, Ann Arbor, MI, USA) was added to each well and the plates were incubated for 30 min. The switch of fluorescence from red to green emitted by both forms of the dye (monomer and aggregate) was measured using the Enspire microplate reader (PerkinElmer) at excitation/emission wavelengths of 560/595 and 485/535 for red and green, respectively; the decrease of the ratio was calculated as the percentage relative to the negative control. Cells images were captured using the Evos cell imaging system (Thermo Fisher Scientific), which is a fully integrated digital inverted microscope, at a magnification of ×40 and ×100. Untreated cells are used as the negative control, and miltefosine and benznidazole were used as the positive control.
Disruption of mitochondrial functions induced by the incubation of L. amazonensis and T. cruzi with compounds 1–3 was evaluated using the mitochondrial membrane potential as a measure. JC-1 dye was used in this assay. In the case of normal mitochondrial membrane potential, the reactive dye will form aggregates that emit red fluorescence; a collapsed potential induces the monomeric form with green fluorescence. This parameter is expressed as the absolute red/green ratio of fluorescence. We considered the values of the negative controls to be the normal values, and therefore the collapse of mitochondrial membrane potential is expressed as a percentage (see Fig. 4a). This parameter is involved in energy storage and is an important indicator of cell health and viability.

[4] = system: Leishmania amazonensis; test: Oxidative stress / ROS accumulation (CellROX Deep Red); details: L. amazonensis, IC90, 24 h
Protocol: The reagent used for this assay was a fluorogenic probe to measure cellular oxidative stress upon oxidation by reactive oxygen species (ROS). To perform the test, cells were incubated with the compounds to be tested, at IC90 for 24 h. The cells were centrifuged and resuspended in a volume of 50 μl, following which CellROX™ Deep Red oxidative stress reagent (Thermo-Fisher Scientific) was added to 96-well plates at […]. The plates were then incubated for 30 min at 37 °C. After incubation, the results were analyzed by cell imaging using the Evos cell imaging system. Cells treated with different compounds were compared with untreated control cells and the positive control. Fluorescence intensity was also measured using the Enspire multimode plate reader at excitation/emission wavelengths of 640/665 nm. Accumulation ROS at the cellular level is a good indicator of oxidative stress and is precursor to a chain reaction leading damage at the cellular level to proteins, nucleic acids, lipids, membrane and organelles. These cellular alterations can lead to activation of the cell death process. As such, ROS play an important role in cell signaling and the apoptosis pathway. An intracellular excess of ROS can be detected by the cell-permeable CellROX™ Deep Red reagent, which is a fluorogenic ROS sensor.

Row | IC50 [1] [µM] | IC90 [1] [µM] | Structure (SMILES) | percentage of membrane permeabilization [2] [%] | decrease in mitochondrial potential [3] [%] | ROS accumulation (fluorescence vs negative control) [4]
1 | 35.3 ± 4.09 | 140 | C=C(C)[C@H]1CC[C@]2(C)C[C@@H]3O[C@@]3(C)CC/C=C(\C)CC[C@@H]12 [Compound 3, 3,4-epoxy-7,18-dolabelladiene] | 35 | > 80 | more remarkable
2 | 18.3 ± 0.91 | 104 | C=C1CC[C@@H]([C@@](C)(O)CCC=C(C)C)[C@@H](O)[C@@H]2C(C)=CC[C@@H]12 [Compound 2, dictyol E] | < 20 | 40.7 | slight increase in fluorescence but the increase was not significant
3 | 13.1 ± 3.62 | 75.4 | CC(C)=CCC[C@](C)(O)[C@@H]1CC[C@@H](C)[C@@H]2CC=C(C)[C@H]2[C@@H]1O [Compound 1, pachydictyol C] | < 20 | 34.0 | more remarkable
